Reference: patent publication US20050245537A1, “Use of compounds having ccr antagonism” (priority 2002, published 2005)

Test system: Mouse Skin Graft Rejection Model
Assay: Mouse skin graft rejection model
Format: in vivo
Source text: Effects of a Compound with Respect to a Mouse Skin Graft Rejection Model

Cc1ccc(-c2ccc3c(c2)C=C(C(=O)Nc2ccc(C[N+](C)(C)C4CCOCC4)cc2)CCC3)cc1.[Cl-] [N,N-dimethyl-N-(4-[[[2-(4-methylphenyl)-6,7-dihydro-5H-benzocyclohepten-8-yl]carbonyl]amino]benzyl]tetrahydro-2H-pyran-4-ammonium chloride]
graft rejection suppression effect (10 mg/kg subdermally once a day, P<0.05 vs. control, log-rank test): significant | number of days of skin graft life (donor mouse B6-CH-2^bm12 abdominal skin grafted onto recipient mouse (B6/129), 10 mg/kg subdermally once a day from the day of grafting, n=7, control group 13.0±2.8 days (n=6)): 19.6 ± 4.4 days
